Measurements reported in patent US7754239B2, “Capsule for rapid solubilization and release of the content” (V. Mane Fils S.A., priority 2001, dated 2010).

Assay: In vitro kinetics of release of aromatic molecules in water (test A samples)
Format: physicochemical
Details: water 37° C., pH 6.5, 5 mm capsule of Example 3; for Total concentration of aromatic molecules over all samples: Total 0-70 seconds
Procedure: A 5 mm capsule, the composition of which is given in Table 5, is analyzed according to test A.
The taking of various samples makes it possible to establish the in vitro kinetics of release of aromatic molecules in water at 37° C.+/−1° C. and at pH 6.5. Table 6 indicates the concentration of aromatic molecules of various samples.
It may be noted that most of the molecules are released within 40 s, at most within 70 s.

Total concentration of aromatic molecules over all samples [ppm] | concentration of aromatic molecules of sample (time 0-5 seconds) [ppm] | concentration of aromatic molecules of sample (time 5-10 seconds) [ppm] | concentration of aromatic molecules of sample (time 10-15 seconds) [ppm] | concentration of aromatic molecules of sample (time 15-20 seconds) [ppm] | concentration of aromatic molecules of sample (time 20-30 seconds) [ppm] | concentration of aromatic molecules of sample (time 30-40 seconds) [ppm] | concentration of aromatic molecules of sample (time 40-50 seconds) [ppm] | concentration of aromatic molecules of sample (time 50-60 seconds) [ppm] | concentration of aromatic molecules of sample (time 60-70 seconds) [ppm] | Compound
139 | 19 | 28 | 22 | 31 | 20 | 7 | 7 | 4 | 1 | Cc1ccc(C(C)C)c(O)c1 [Thymol]
399 | 47 | 67 | 63 | 90 | 62 | 24 | 24 | 16 | 6 | CC1CCC(C(C)C)C(O)C1 (centres unmarked) [Menthol]
